# Laboratory results from patent publication US12427189B2, “Vaccine comprising epitope of heat shock protein, and use thereof” (ASTON SCI. CO., LTD., priority 2018, dated 2025).
# Key:
# [1] = tested on: mouse mammary carcinoma (MMC) cells; test: Combination of HSP90 peptides and STING agonist in MMC tumor-bearing mice; format: in vivo, neu-transgenic mice
# From the text: (§1) To evaluate effects of the combination therapeutic with HSP90 peptides and STING agonist (tlrl-dmx, InvivoGen, CA, USA), MMC cells (5×10^5) were implanted with s.c in neu-transgenic mice. […] Three immunizations were given 10 days apart. 15 days after the third vaccination, spleen, tumor and serum was harvested in mice. To evaluate survival analysis of the combination effects with HSP90 peptides and STING agonist, mice were monitored two time per week until 90 days following tumor implantation and when tumor reached a size greater than 2,000 mm^3, mice were considered dead.
# The levels of HSP90 and HER2 ECD were evaluated by ELISA in the serum of HER2 positive breast cancer patients and mice. Briefly, HSP90 (ADI-SPP-776, Enzo Life Science, NY, USA) and HER2 ECD (YCP5341, Speed Biosystems) recombinant proteins were coated a 96-well microplate with 50 μL per well of the diluted concentration of 20 μg/mL in carbonate buffer. Standard was coated with IgG dilution of human and mouse to serial concentration (0.64˜0.005 μg/mL). […] Samples (200 μL) were added to the wells and incubated overnight at 4° C. […] The optical density of each well at 450 nm was determined using an IMARKTM™ microplate reader (Bio-Rad Laboratories, Hercules, CA, USA). […]
# [2] = tested on: mouse mammary carcinoma (MMC) cells; test: Survival analysis of HSP90 peptides and STING agonist in MMC tumor-bearing mice; format: in vivo, neu-transgenic mice; details: monitored until 90 days after tumor implantation; tumor >2,000 mm^3 considered dead
# From the text: as §1
# MMC cells [3] = test: Cell viability MTT assay, MMC cells; format: cell-based, mouse
# From the text: (§2) Neu-transgenic mice [strain: FVB/N-Tg(MMTVneu)202Mul] were obtained from the Jackson Laboratory (Bar Harbor, ME). These mice harbor non-mutated, non-activated rat neu under the control of the mouse mammary tumor virus (MMTV) promoter/enhancer. The neu transgene is expressed at low levels in normal mammary epithelium, salivary gland, and lung. Until the age of eight month, 35% of female neu-transgenic mice spontaneously develop mammary carcinomas that display high neu-expression levels. Mouse mammary carcinoma (MMC) cell line was established from a spontaneous tumor in neu-transgenic mouse. MMC cells were maintained in RPMI-1640 medium (ThermoFisher scientific, Utah, USA) supplemented with 10% fetal bovine serum, 100 units/ml penicillin, […] streptomycin and 2 mM L-glutamine, and were incubated in a humidified 37° C. incubator with 5% CO2. Lapatinib was purchased from LC laboratories (L-4899, MA, USA). […]
# (§3) Cells were seeded at a density of 1×10^5 cells in 6-well plates. […] Cell viability was quantitatively analysed using the 3-[4,5-dimethylthiazol-2-yl]-2,5-diphenyltetrazolium (MTT) assay. […] The absorbance of the converted MTT dye was measured at 540 nm using an IMARK™ microplate reader (Bio-Rad Laboratories). Cell viability was expressed as the relative percentage compared to untreated cells; experimental error was also calculated. […] The percent of cell survival was calculated using […] […]
# LR-MMC cells [4] = test: Cell viability MTT assay, lapatinib-resistant MMC cells; format: cell-based, mouse
# From the text: as §2, §3
# MMC cells [5] = test: Lapatinib treatment of MMC tumor-bearing mice; format: in vivo, neu-transgenic mice; details: day 34, lapatinib 75 mg/kg oral gavage 5 times weekly
# Description: (§4) To establishment lapatinib-resistant mouse model, MMC and lapatinib-resistant MMC cells (1×106) were injected flank with s.c in neu-transgenic mice.
# LR-MMC cells [6] = test: Lapatinib treatment of LR-MMC tumor-bearing mice; format: in vivo, neu-transgenic mice; details: lapatinib 75 mg/kg oral gavage 5 times weekly
# Description: as §4
# LR-MMC cells [7] = details: per 10 high-power field, IHC
# human PBMCs = test: IFN-γ and IL-10 ELISPOT screen of HSP90 peptides in human PBMCs; format: cell-based; details: human PBMCs from 10 volunteer donors
# Description: Serum samples were obtained after written consent, from 25 HER2 positive breast cancer patient, and 25 volunteer donors at the Korea University Anam Hospital (Approval number: 2016AN0090). All sera were aliquoted and stored at −80° C. For human T cell response studies, peripheral blood mononuclear cells (PBMC) were obtained after informed consent, from 10 breast cancer patients, and 10 volunteer donors. Cells were ficolled and cryopreserved as previously described (Guy C T, et al. (1992) Expression of the neu protooncogene in the mammary epithelium of transgenic mice induces metastatic disease. Proceedings of the National Academy of Sciences of the United States of America 89(22):10578-10582). PBMC samples were obtained at the General Clinical Research Center Facility at the University of Washington (Approval number: NIH MO1-RR-00037)
# (§5) Color development was stopped by washing under tap water.
# This study profiled the peptide sequences with the highest recognition of HSP90 peptide and MHC class II peptide binding by a scoring system combining multiple MHC class II peptide binding algorithms. FIG. 2 depicts the entire HSP90 peptide sequence and identified immunogenic “hotspots”. Among them, 11 peptides with the highest scores in the binding affinity scoring system were selected. The selected 11 15-mer HSP90 peptides (Table 2) were screened for T helper (Th)1 or Th2 immunity in human PBMCs from 10 volunteer donors by IFN-γ ELISPOT assay using as a representative Th1 cytokine, IFN-γ, and a Th2 cytokine, Interleukine-10 (IL-10).
# Splenocytes = test: Immunogenicity of HSP90 peptides in immunized FVB mice, IFN-γ ELISPOT of splenocytes; format: in vivo; details: mice immunized s.c. 100 μg single peptide in CFA/IFA, 3 times; compared with control
# Description: To test immunogenicity of the selected peptides in murine model, six to eight-week-old female FVB mice were obtained from Koatech (Gyeonggi, Korea). The mice were immunized subcutaneous (s.c) injection with 100 μg of respective HSP90 peptides of SEQ ID NOs: 1, 2, and 5-14 or Phosphate Buffered Saline (PBS) as a mixture in complete Freund's adjuvant (CFA; F5881, Sigma, MO, USA)/incomplete Freund's adjuvant (IFA; F5506, Sigma). Three immunizations were given 10 days apart. Ten days after the third vaccination, spleen and serum was harvested from each mouse.
# as §5
Compound,Th1 and Th2 immune responses (IFN-γ and IL-10 ELISPOT) (human PBMCs),antigen-specific T cell response (IFN-γ ELISPOT) (Splenocytes),further results
Cc1ccc2c(=O)c3cccc(CC(=O)O)c3oc2c1C [STING agonist],–,–,"mean tumor volume (mean±SD) ([1]; day 35, treatment from tumor >100 mm^3, 3 times): 647±66 mm^3; expression levels of mouse HER2 ECD (ELISA) ([1]; serum): 89 µg/mL; median survival [2]: 79 days"
CS(=O)(=O)CCNCc1ccc(-c2ccc3ncnc(Nc4ccc(OCc5cccc(F)c5)c(Cl)c4)c3c2)o1 [lapatinib],–,–,"sensitivity after lapatinib treatment (MMC cells [3]; MMC cells): sensitive in a dose-dependent manner; IC50 (MMC cells [3]; Mus musculus, parent MMC cells): 0.076 µM; apoptosis (LR-MMC cells [4]; LR-MMC cells compared with MMC cells): did not induce significant apoptosis; IC50 (LR-MMC cells [4]; Mus musculus, LR-MMC cells): 0.39 µM; mean tumor volume (mean±SD) (MMC cells [5]): 1711±397 mm^3; mean tumor volume (mean±SD) (LR-MMC cells [6]): 1212±523 mm^3; infiltrated CD8+ T cells in tumor (Mean median) (LR-MMC cells [7]): 6.6 counts"
IVKKHSQFIGYPITL (HSP90 p328-342) [HSP90 15-mer peptide],strong Th1 and Th2 immune responses,–,–
LEFRALLFVPRRAPF (HSP90 p457-471) [HSP90 15-mer peptide],weak Th1 and Th2 immune responses,significantly higher,–
LYKDLQPFILLRLLM (HSP90 p109-123) [HSP90 15-mer peptide],strong Th1 and Th2 immune responses,–,–
LYVRRVFIMDNCEEL (HSP90 p485-499) [HSP90 15-mer peptide],predominantly Th1 immune responses,significantly higher,–
QFGVGFYSAYLVAEK (HSP90 p255-269) [HSP90 15-mer peptide],weak Th1 and Th2 immune responses,–,–
QSKILKVIRKNLVKK (HSP90 p527-541) [HSP90 15-mer peptide],predominantly Th1 immune responses,significantly higher,–
SELLRYYTSASGDEM (HSP90 p582-596) [HSP90 15-mer peptide],weak Th1 and Th2 immune responses,–,–
SVKDLVILLYETALL (HSP90 p780-794) [HSP90 15-mer peptide],weak Th1 and Th2 immune responses,–,–
TDTGEPMGRGTKVIL (HSP90 p296-310) [HSP90 15-mer peptide],weak Th1 and Th2 immune responses,–,–
YSNKEIFLRELISNS (HSP90 p160-174) [HSP90 15-mer peptide],weak Th1 and Th2 immune responses,significantly higher,–
